The values that follow come from patent publication US20240317724A1, “3,4-METHYLENEDIOXYMETHAMPHETAMINE AND RELATED PS[…] USES THEREOF” (Terran Biosciences Inc., priority 2021, published 2024).

Broadly, the AUC(0-t) is the area under the concentration-time curve up to a stated or last time point. The Vd is a proportionality between amount in the body and measured concentration, not a real space. Read a low Vd as little distribution into tissue. As usually defined, the clearance is a measure of how efficiently the substance is removed, as volume per time. The low end stands for a low capacity for elimination, the high end for a high capacity for elimination.

Data set [1] is described as follows: Single oral (PO) dose pharmacokinetics study in rats; plasma concentration of MDMA (and prodrug) by LC-MS/MS. Particulars: for AUC(0-t): po, mean.
Data set [2] is described as follows: Single intravenous (IV) dose pharmacokinetics study in rats; plasma concentration of MDMA by LC-MS/MS.
The mark [3] stands for this setting: male, Sprague-Dawley, rat, plasma, iv, 1 mg/kg.

In the case of `CNC(C)Cc1ccc2c(c1)OCO2` (centres unmarked) [MDMA, 3,4-Methylenedioxymethamphetamine], the Tlast was determined as 7.00 h in data set [1] (MDMA dosed PO 10 mg/Kg, male SD rats, analyte MDMA, median) and 2.00 h in data set [2] (MDMA dosed IV 1 mg/Kg, male SD rats, analyte MDMA, median). Moreover, the bioavailability in data set [1] (male, Sprague-Dawley, rat, plasma, oral, 10 mg/kg) is 104%. Further, the AUC(0-t) in data set [1] (male, Sprague-Dawley, rat, plasma, 10 mg/kg, AUC0-2, MDMA dosed PO 10 mg/Kg, male SD rats, analyte MDMA) amounted to 638 ng·h/mL; in data set [1] (male, Sprague-Dawley, rat, plasma, 10 mg/kg, AUC0-24, MDMA dosed PO 10 mg/Kg, male SD rats, analyte MDMA) it was 1810 ng·h/mL; in data set [1] (male, Sprague-Dawley, rat, plasma, 10 mg/kg, AUC0-last, MDMA dosed PO 10 mg/Kg, male SD rats, analyte MDMA) it was 1710 ng·h/mL. In data set [2] (setting [3]), this compound gave a Vd of 8.18 L/kg. The clearance in data set [2] (setting [3]) stood at 274 mL/min/kg.
On to `CCCOC(=O)N(C)C(C)Cc1ccc2c(c1)OCO2` (centres unmarked) [Propyl carbamate prodrug of MDMA, propyl N-[2-(1,3-benzodioxol-5-yl)-1-methyl-ethyl]-N-methyl-carbamate], for which the “Mean plasma concentration of metabolite MDMA” value in data set [1] (0.50 h after oral dosing of prodrug 10 mg/Kg, male SD rats) is listed as “BLQ (BLQ: Below Lower Limit of Quantification (0.5 ng/mL))”; in data set [1] (1.00 h after oral dosing of prodrug 10 mg/Kg, male SD rats), “BLQ (BLQ: Below Lower Limit of Quantification (0.5 ng/mL))”; in data set [1] (2.00 h after oral dosing of prodrug 10 mg/Kg, male SD rats), “BLQ (BLQ: Below Lower Limit of Quantification (0.5 ng/mL))”; in data set [1] (4.00 h after oral dosing of prodrug 10 mg/Kg, male SD rats) it was “BLQ (BLQ: Below Lower Limit of Quantification (0.5 ng/mL))”; in data set [1] (7.00 h after oral dosing of prodrug 10 mg/Kg, male SD rats), “BLQ (BLQ: Below Lower Limit of Quantification (0.5 ng/mL))”; in data set [1] (24.0 h after oral dosing of prodrug 10 mg/Kg, male SD rats), “BLQ (BLQ: Below Lower Limit of Quantification (0.5 ng/mL))”.
